Reference: US11571441B2, “Sideroflexins as mitochondrial serine transporters” (Whitehead Institute for Biomedical Research, priority 2018, dated 2023)
Entries after “also recorded” stand apart in the source; their conditions may differ. Where two headings read alike, the source gives them in different places.

T1: SFXN1 (Homo sapiens, UniProt Q9H9B4)
T1 construct: made in house
T1 sequence (Q9H9B4 1-322): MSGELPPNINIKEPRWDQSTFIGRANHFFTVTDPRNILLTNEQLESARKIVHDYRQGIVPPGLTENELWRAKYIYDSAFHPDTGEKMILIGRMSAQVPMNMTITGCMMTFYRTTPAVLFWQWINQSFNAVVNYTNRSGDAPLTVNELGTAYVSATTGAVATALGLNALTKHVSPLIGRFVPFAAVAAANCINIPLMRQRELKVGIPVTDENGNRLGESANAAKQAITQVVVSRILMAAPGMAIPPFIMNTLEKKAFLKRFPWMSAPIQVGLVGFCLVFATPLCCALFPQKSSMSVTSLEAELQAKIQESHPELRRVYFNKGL


What was measured:
[1] = tested on: SFXN1/3-null Jurkat cells; assay: Cell proliferation assay in glycine-deficient media, formate rescue; assay type: cell-based, human; settings: 1 mM formate, cells cultured with it 2 days before the experiment
Method: (§1) 10,000 cells per well were seeded into 96 well plates in triplicate. Cell titer glo reagent (Promega) was added to one plate immediately after seeding and luminescence was measured, while a second plate was read-out 4 days after seeding. Number of doublings in 4 days was determined by calculating the log2 fold-change in signal between day 0 and 4. For formate rescue experiments, 1 mM formate was added to cells at time of seeding (Jurkat cells) or cells were cultured in formate-containing media for 1 week prior to the experiment (K562 cells) unless indicated otherwise.
(§2) 10,000 cells per well were seeded into 96-well plates in triplicate. Cell titer glo reagent (Promega) was added to one plate immediately after seeding and luminescence was measured, while a second plate was read-out 4 days after seeding. Number of doublings in 4 days was determined by calculating the log2 fold-change in signal between day 0 and 4. For formate rescue experiments, 1 mM formate was added to media at the time of seeding (Jurkat cells) or cells were cultured in formate-containing media for 1 week prior to the experiment (K562 cells) unless indicated otherwise.

[2] = tested on: SFXN1-null cells (Jurkat and K562); assay: Cell proliferation assay (Cell titer glo) in serine-deficient media, formate rescue; assay type: cell-based, human; settings: 1 mM formate added, 4 days
Method: as §1, §2

SFXN1 [3] = target: T1, SFXN1; assay: In vitro transport assay: [3H] serine/alanine uptake into SFXN1 proteoliposomes; assay type: biochemical; settings: for competition of serine uptake by different metabolites (FIG. 3B) / competition of serine uptake by different metabolites (FIG. 3C): after 60 min, SFXN1 liposomes; for competition of serine uptake by different metabolites (FIG. 3C): metabolites at 500 μM; for Km: steady-state kinetic analysis, proteoliposomes
Method: (§3) In vitro transport assays were performed as described previously with the following specifications. Flag-SFXN1 was purified from 293T cells stably expressing the protein using FLAG-affinity purification and eluted off beads with FLAG peptide.
(§4) 1% Phosphatidylcholine was added to total E. coli lipids in chloroform, evaporated under nitrogen and desiccated overnight. Dried lipids were hydrated in inside buffer (20 mM MES pH 7, 50 mM NaCl, 20 mM KCl) by freeze-thawing in liquid nitrogen 20× times. Lipids were extruded 6× though a 0.4 μm filter and 15× through a 0.1 μm filter. 15 ug of purified SFXN1 protein were reconstituted into 1.2 mg liposomes using a detergent:lipid ratio of 5:1 with the addition of 1 mM DTT in inside buffer rotating at 4 degree for 1 hour. The proteoliposomes were incubated for 3 sequential rounds with Bio-beads to remove detergent. A liposome-only control was prepared by replacing the protein with inside buffer in the reconstitution reaction. Incorporation of protein into liposomes was assessed using glycerol gradient centrifugation. A buffer containing 20 mM Tris-HCL pH 7.4 and 100 mM NaCl was used as outside buffer in transport reactions.
In vitro transport assays were performed as described previously (43, 44) with the following specifications. FLAG-SFXN1 was purified from HEK-293T cells stably expressing the protein using FLAG-affinity purification and eluted off the beads with the FLAG peptide.
1% Phosphatidylcholine was added to total E. coli lipids in chloroform, evaporated under nitrogen and desiccated overnight. Dried lipids were hydrated in inside buffer (20 mM MES pH 7, 50 mM NaCl, 20 mM KCl) by freeze-thawing in liquid nitrogen 20× times. Lipids were extruded 6× through a 0.4 μm filter and 15× through a 0.1 μm filter. 15 μg of purified SFXN1 protein were reconstituted into 1.2 mg liposomes using a detergent:lipid ratio of 5:1 with the addition of 1 mM DTT in inside buffer rotating at 4° C. for 1 hour. The proteoliposomes were incubated for 3 sequential rounds with Bio-Beads to remove detergent. A liposome-only control was prepared by replacing the protein with inside buffer in the reconstitution reaction. Incorporation of protein into liposomes was assessed using a glycerol gradient centrifugation assay. [3H] […] Different lots of total E. coli lipid extracts were tested and ones that optimally preserved SFXN1 activity were used in experiments.

SFXN1-null Jurkat cells = assay: LC-MS metabolite quantification (purine synthesis intermediates, serine, glycine) in SFXN1-null cells; assay type: cell-based, human; settings: 1 mM formate, 24 hours in indicated media
Method: Quantification of metabolite abundance using LC/MS-based metabolomics was performed and analyzed as previously described. Briefly, Jurkat or K562 cells were seeded at densities of 0.6×10^6 per ml and 0.33×10^6 per ml, respectively. 24 h later, 2×10^6 Jurkat or 1×10^6 K562 cells were harvested, washed once in ice-cold 0.9% saline prepared with LC-MS grade H2O, and extracted with 80% methanol containing 500 nM isotope-labeled amino acids as internal standards (Cambridge Isotope Laboratories). The samples were vortexed for 10 min at 4° C. and spun down at 17,000×g. The supernatant was dried by vacuum centrifugation at 4° C. Samples were stored at −80° C. until analyzed. On the day of analysis, samples were resuspended in 50-100 μL of LC/MS grade water and the insoluble fraction was cleared by centrifugation at 15,000 rpm. The supernatant was then analyzed as previously described by LC/MS (21, 33). […]
Metabolite abundance using LC/MS-based metabolomics was measured and quantified as previously described (15). […] Samples were stored at −80° C. until analyzed. […] The supernatant was then analyzed as previously described by LC-MS (15, 38) Amino acids were normalized to their respective internal standards, purine synthesis intermediates were normalized to the glutamate internal standard. […]

SFXN1 [4] = assay: Amino acid uptake into mitochondria isolated from wild-type or SFXN1-null Jurkat cells; assay type: biochemical, human; settings: 0.75 μM [3H] serine or 3 μM [3H] glutamate, 30° C.
Method: Mitochondria from wild-type or SFXN1-null Jurkat cells were prepared according to (45). Briefly, cells (˜1 g starting material) were resuspended in low tonicity buffer (100 mM sucrose, 10 mM MOPS pH 7.2, 1 mM EGTA, 0.1% BSA) and disrupted with 20 strokes in a homogenizer containing a pure PTFE head (VWR International) and two strokes with a dounce tissue grinder with tight-fitting pestle (DWK Life Sciences Kimbl Kontes). After adjusting tonicity, lysates were spun twice at 950×g to remove unbroken cells and nuclei, and mitochondria were pelleted by centrifuging at 10,000×g for 10 min. […] Mitochondrial preparations were adjusted for protein content. […] 50 μl samples were collected immediately after start of the reaction and at 1, 2, 3 mins and added to mixed cellulose-ester filters (Fisher Scientific, 0.22 μm pore size) connected to a vacuum line (adapted from (47)). Filters were washed with 3 mL of ice cold TBS and the radioactivity remaining on the filters was measured using a scintillation counter. Blank reaction samples, in which mitochondria were replaced with incubation media, were used to subtract the background. The uptake rate was calculated from the first two minutes of the reaction.

[5] = substrate: C[C@H](N)C(=O)O; assay: purified protein, by the assay type; settings: other: steady-state kinetic analysis; proteoliposomes
[6] = substrate: N[C@@H](CO)C(=O)O; assay: purified protein, by the assay type; assay type: biochemical, human; settings: other: steady-state kinetic analysis; proteoliposomes; [3H] serine 1 μM with increasing unlabeled serine
Method: as §3
as §4, with “reactions. […]” for “reactions.”
1% Phosphatidylcholine was added to total E. coli lipids in chloroform, evaporated under nitrogen and desiccated overnight. […] Incorporation of protein into liposomes was assessed using a glycerol gradient centrifugation assay. […]

Molecule | competition of serine uptake by different metabolites (FIG. 3B) (SFXN1 [3]) | competition of serine uptake by different metabolites (FIG. 3C) (SFXN1 [3]) | other results
O=CO [formate] | not able to complete serine uptake | Neither formate nor citrate competed with serine transport | rescue of proliferation of SFXN1/3-null cells in the absence of glycine [1]: unable to rescue the growth defect; also recorded: did not reverse their proliferation defect; also recorded: does not rescue proliferation; rescue of proliferation of SFXN1-null cells in serine-deficient media [2]: completely restored growth of SFXN1-null cells; also recorded: completely reversed the slow proliferation; also recorded: rescues growth; accumulation of purine synthesis intermediates (GAR, SAICAR, AICAR) in SFXN1-null cells (SFXN1-null Jurkat cells): completely abolish their accumulation; also recorded: abolished the accumulation of the intermediates; also recorded: reverses the accumulation of purine synthesis intermediates; glycine levels and serine/glycine ratio of SFXN1-null cells (SFXN1-null Jurkat cells): without rescuing the cellular serine and glycine levels; also recorded: did not rescue the defects in glycine levels; also recorded: does not rescue glycine levels and serine/glycine ratio
N[C@@H](CS)C(=O)O [cysteine] | – | competed with the transport of the labelled serine; also recorded: partially competed with serine | –
NCC(=O)O [glycine] | – | competed with the transport of the labelled serine; also recorded: partially competed with serine | –
N[C@@H](CCC(=O)O)C(=O)O [glutamate] | – | – | radioactive amino acid uptake into mitochondria from SFXN1-null cells compared to wild-type (SFXN1 [4]): unaffected; also recorded: unchanged
N[C@@H](CO)C(=O)O [serine] | – | – | radioactive amino acid uptake into mitochondria from SFXN1-null cells compared to wild-type (SFXN1 [4]): reduced; Km (SFXN1 [3]; [3H] serine 1 μM with increasing unlabeled serine, read-out: Km of SFXN1-mediated serine transport): 170 µM
O=C(O)CC(O)(CC(=O)O)C(=O)O [citrate] | – | Neither formate nor citrate competed with serine transport; also recorded: does not compete with serine | –
C[C@H](N)C(=O)O [alanine] | able to complete serine uptake | competed with the transport of the labelled serine; also recorded: partially competed with serine | Km (SFXN1 [3]; read-out: Km of SFXN1-mediated alanine transport): ~371 µM
N[C@H](CO)C(=O)O [D-serine] | able to complete serine uptake | competed with the transport of the labelled serine | –
N[C@@H](CO)C(=O)O [L-serine] | able to complete serine uptake | competed with the transport of the labelled serine | –
SFXN1 (Homo sapiens) (protein, made in house) MSGELPPNINIKEPRWDQSTFIGRANHFFTVTDPRNILLTNEQLESARKIVHDYRQGIVPPGLTENELWRAKYIYDSAFHPDTGEKMILIGRMSAQVPMNMTITGCMMTFYRTTPAVLFWQWINQSFNAVVNYTNRSGDAPLTVNELGTAYVSATTGAVATALGLNALTKHVSPLIGRFVPFAAVAAANCINIPLMRQRELKVGIPVTDENGNRLGESANAAKQAITQVVVSRILMAAPGMAIPPFIMNTLEKKAFLKRFPWMSAPIQVGLVGFCLVFATPLCCALFPQKSSMSVTSLEAELQAKIQESHPELRRVYFNKGL | – | – | Km [5]: 371 µM; Km [6]: 170 µM; Vmax [6]: 8.2 pmol/min
